Data on five compounds can be found in patent publication US9056835B2, “LPA2 receptor-specific benzoic acid derivatives” (University of Tennessee Research Foundation, priority 2012, dated 2015).

Assay [1] addresses T1, LPA3 (Homo sapiens, UniProt Q9UBY5).
T1 construct: expressed in transfected cells
T1 sequence (Q9UBY5 1-353): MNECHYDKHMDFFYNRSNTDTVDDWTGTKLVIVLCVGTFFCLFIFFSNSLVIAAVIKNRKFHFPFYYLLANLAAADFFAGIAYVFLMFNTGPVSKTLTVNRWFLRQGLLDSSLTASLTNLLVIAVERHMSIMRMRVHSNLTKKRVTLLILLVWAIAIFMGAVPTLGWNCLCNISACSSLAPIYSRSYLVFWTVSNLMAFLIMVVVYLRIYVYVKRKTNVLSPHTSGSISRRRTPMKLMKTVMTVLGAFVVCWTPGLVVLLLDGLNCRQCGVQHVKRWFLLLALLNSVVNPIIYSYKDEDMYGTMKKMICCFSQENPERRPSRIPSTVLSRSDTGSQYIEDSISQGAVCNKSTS
Put plainly: LPA receptor-mediated Ca2+ mobilization assay, LPA3. It counts as cell-based. Conditions: for LPA3 Imax (%): inhibition by 10 μM compound of ~EC75 LPA 18:1 Ca2+ response; for inhibition of LPA3 Ca2+ response: 10 μM, ~EC75 LPA 18:1. Here is the method: (§1) Similarity searches were performed separately using each fingerprint to quantitate similarity. Hits meeting the 80% similarity threshold from each search were ranked based on the Tanimoto coefficient measure of similarity to a target molecule NSC12404, and the top 75 unique hits from each fingerprint search were selected for further analysis. The 225 compounds selected for further analysis were clustered based on Tanimoto coefficients calculated using Molecular ACCess System-key fingerprints (MACCS keys) and evaluated using the diversity subset function implemented in MOE. This selected a diverse subset of 27 compounds for biological evaluation by choosing the middle compounds in each cluster. These 27 compounds were tested in Ca^2+ mobilization assays at a concentration of 10 μM using stable cell lines individually expressing LPA2 and also in vector-transfected control cells. Hits activating LPA2 were further tested using cells expressing the other established and putative LPA GPCRs. […] They arbitrarily selected GRI977143 for further characterization in cell-based assays.
(§2) J Biol Chem (2009) 284(25): 17304-17319). […] The cells were loaded with Fura-2-acetoxymethyl esther (Fura-2/AM) in Krebs buffer containing 0.01% pluronic acid for 30 min and rinsed with Krebs buffer before measuring Ca^2+ mobilization. The ratio of peak emissions at 510 nm after 2 min of ligand addition was determined for excitation wavelengths of 340 nm/380 nm. All samples were run in quadruplicate. […] The half maximally effective concentration (EC50), and inhibitory constant (Ki) values were calculated by fitting a sigmoid function to dose-response data points using KaleidaGraph software (version 4.1, Synergy Software; […]).
(§3) Mouse embryonic fibroblast (MEF) cells were isolated from E13.5 LPA1&2 double knockout (DKO) embryos. MEFs were transduced with empty vector or LPA2-containing lentiviruses and selected with 1.5 μg/ml puromycin. Cells were maintained in Dulbecco's modified Eagle medium (DMEM) supplemented with 10% (V/V) fetal bovine serum (FBS), 2 mM L-glutamine, 100 U/mL penicillin, and 100 μg/mL streptomycin. Serum-free medium contained 0.1% (W/V) BSA in DMEM. The rat intestinal epithelial cell line 6 (IEC-6) was obtained from the American Type Culture Collection (Rockville, Md.) at passage 13; passages 16-21 were used in all experiments. IEC-6 cells were maintained in a humidified 37° C. incubator in an atmosphere of 90% air and 10% CO2. Growth medium consisted of DMEM supplemented with 5% heat inactivated FBS, 10 μg/mL insulin, and 50 μg/mL gentamycin. The composition of the serum-starvation medium was the same as that of the full growth medium except that it contained no FBS. The McArdle rat hepatoma cell line (RH7777) stably expressing LPA2 receptors was a gift from Dr. Fumikazu Okajima (Gunma University, Maebashi, Japan). RH7777 cells stably expressing LPA1 or LPA3 receptors were generated in-house and had been characterized earlier. Wild type and LPA receptor (LPAR) stably transfected RH7777 cells were grown in DMEM supplemented with 10% FBS and 2 mM L-glutamine in the presence of 250 μg/ml G418. Chinese hamster ovary (CHO) cells stably expressing either vector or LPA4 receptor were a kind gift from Dr. Takao Shimizu (Tokyo University; Tokyo, Japan). Cells were cultured in Ham's F12 medium containing 10% FBS, 2 mM L-glutamine, and 350 μg/ml G418. Rat neuroblastoma cells (B103) were transduced with the lentivirus harboring wild type of FLAG-LPA5 and selected with puromycin to establish the stable cell lines. The stable cells were maintained in DMEM supplemented with 10% FBS and 0.4 μg/ml puromycin. GPR87- and P2Y10-expressing CHO cells and vector-transfected control cells were a gift from Dr. Norihisha Fujita (Ritsumeikan University; Shiga, Japan).

Assay [2] deals with T2, LPA4 (Homo sapiens, UniProt Q99677).
T2 construct: expressed in transfected cells
T2 sequence (Q99677 whole entry, species assumed): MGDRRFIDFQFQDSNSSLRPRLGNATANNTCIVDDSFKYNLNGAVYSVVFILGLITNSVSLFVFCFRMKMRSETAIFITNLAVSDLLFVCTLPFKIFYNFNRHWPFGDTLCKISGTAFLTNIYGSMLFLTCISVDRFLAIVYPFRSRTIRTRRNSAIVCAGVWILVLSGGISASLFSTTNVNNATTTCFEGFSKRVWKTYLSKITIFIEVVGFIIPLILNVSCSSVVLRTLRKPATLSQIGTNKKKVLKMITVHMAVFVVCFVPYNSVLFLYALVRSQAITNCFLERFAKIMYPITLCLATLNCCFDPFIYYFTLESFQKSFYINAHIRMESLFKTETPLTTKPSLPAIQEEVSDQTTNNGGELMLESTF
Put plainly: LPA receptor-mediated Ca2+ mobilization assay, LPA4. It counts as cell-based. The note with it: for EC50: agonist, Ca2+ mobilization. The protocol: as §1, §2, §3

Some results are limits rather than exact numbers.

Take `O=C(O)c1cc(Cl)c(Cl)cc1C(=O)Nc1ccc2c(c1)C(=O)c1ccccc1-2` [Compound H2L5547924]: in assay [1], the “LPA3 Imax (%)” value was found to be 66%. The “inhibition of LPA4 Ca2+ response” value in assay [2] (10 μM, ~EC75 LPA 18:1) is on record as “partially inhibited”. Further, the “LPA4 Imax (%)” value in assay [2] (inhibition by 10 μM compound of ~EC75 LPA 18:1 Ca2+ response) worked out at 51%.

Take `O=C(O)c1ccccc1C(=O)Nc1ccc2c(c1)C(=O)c1ccccc1C2=O` [Compound H2L5828102]: in assay [1], the “inhibition of LPA3 Ca2+ response” value is “fully inhibited” and the “LPA3 Imax (%)” value is recorded as 100%. Moreover, in assay [1] (antagonist, Ca2+ mobilization, read-out: LPA3 K), the Ki was 1500 nM. For the same compound, the EC50 in assay [2] is greater than 10000 nM.

Turning to `O=C(O)c1ccccc1SCCCN1C(=O)c2cccc3cccc(c23)C1=O` [GRI977143], in assay [1], the “inhibition of LPA3 Ca2+ response” value is “inhibited LPA3” and the “LPA3 Imax (%)” value is listed as 55%. Moreover, in assay [2], the EC50 was greater than 10000 nM.

As to `O=C(O)c1ccccc1C(=O)Nc1ccc2c(c1)C(=O)c1ccccc1-2` [NSC12404], in assay [1], the “inhibition of LPA3 Ca2+ response” value is “inhibited LPA3” and the “LPA3 Imax (%)” value was 61%. In assay [2], the EC50 is greater than 10000 nM.

Regarding octadecenyl thiophosphate [OTP], the EC50 was found to be 297 nM in assay [1] (agonist, Ca2+ mobilization) and 2000 nM in assay [2].
